These results are taken from patent publication US10774084B2, “Adenine derivatives and their use as UV-photoprotective agents” (UNIVERZITA PALACKEHO V OLOMOUCI, priority 2015, dated 2020).

Bounds are passed on as bounds.

The subject of series [1] is Normal human dermal fibroblasts (NHDF). Briefly: In vitro phototoxicity test (neutral red) on NHDF. It counts as cell-based. The procedure:
Phototoxic potential of test compound was determined by modified in vitro test validated phototoxicity evaluation (Spielmann H, Balls M, Dupuis J, Pape W J, Pechovitch G, de Silva O, Holzhiitter H G, Clothier R, Desolle P, Gerberick F, Liebsch M, Lovell W W, Maurer T, Pfannenbecker U, Potthast J M, Csato M, Sladowski D, Steiling W, Brantom P. The International EU/COLIPA In Vitro Phototoxicity Validation Study: Results of Phase II (Blind Trial). Part 1: The 3T3 NRU Phototoxicity Test. Toxicol In Vitro. 1998; 12:305-27). Normal human dermal fibroblasts (NHDF) were used as an in vitro model. Cells were isolated from tissue specimens obtained from healthy patients undergoing plastic surgery at the Department of Plastic and Aesthetic Surgery (University Hospital Olomouc). The use of skin tissue was in accordance with the Ethics Committee of the University Hospital and Faculty of Medicine and Dentistry, Palacky University, Olomouc and all patients signed written informed consent. Fibroblasts were used between the 2nd and 4th passage. For all experiments the fibroblasts were seeded onto 96-well plates at a density of 0.8×10^5 cells/ml (0.2 ml per well) of cultivation medium (DMEM supplemented with fetal calf serum (10%, v/v), penicillin ([…]) and streptomycin (100 U/ml)). Test substances included compounds number 1, 3, 9, 15 and 20. Compounds were dissolved in DMSO and then diluted in serum free medium (DMEM supplemented with penicillin ([…]) and streptomycin (100 U/ml)). After 24 h incubation was cultivation medium changed to serum free medium containing test compound or DMSO (negative control). The final applied concentrations range 3.9-125 μmol/l. As a control, serum free medium supplemented with appropriate concentration of DMSO (0.5%, v/v) was used. In parallel with test compound, chlorpromazine (CPZ; 0.8-50 μmol/l) was used as a known phototoxic compound. The test compound was in parallel applied on two 96-well plates with NHDF. After 60 minutes incubation with test compound medium was discarded, cells were washed two-times with PBS and PBS supplemented with glucose (1 mg/ml) was applied. A plate was then exposed to a non-cytotoxic dose of UVA radiation (5.0 J/cm^2) using a solar simulator SOL 500 (Dr. Hoenle Technology, Germany) equipped with a H1 filter transmitting wavelengths of 320-400 nm. Intensity of UVA radiation was evaluated before each irradiation by UVA-meter. A control (non-irradiated) plate was for the period of irradiation incubated in dark. After UVA exposure PBS with glucose was discarded and serum free medium was applied. After 24 hours (37° C., 5% CO2) cell damage was evaluated by neutral red (NR) incorporation into viable cells. Medium was discarded and NR solution (0.03% w/v, PBS) was applied. After 60 minutes NR solution was discarded, cells were fixed with a mixture of formaldehyde (0.5%, v/v) and CaCl2 (1%, m/v) in ratio 1:1 and then NR was dissolved in methanol (50%, v/v) with acetic acid (1%, v/v). After 5 minutes of intensive shaking absorbance was measured at 540 nm. Experiments were performed in four independent repetitions with use of cells from four donors to minimize individual sensitivity of donor cells. Phototoxic effect was evaluated as % of viability of control cells that was calculated from experimental data (absorbance) according to the following equation:
[formula] • AS . . . absorbance of sample (cells pre-incubated with test compound in serum free medium and irradiated) • AC . . . absorbance of control (cells pre-incubated with DMSO in serum free medium and irradiated) • AB . . . absorbance of background (extraction solution)

Series [2] deals with skin fibroblasts BJ and keratinocytes HaCaT. Briefly: MTT in vitro cytotoxicity test for skin cells. The settings on record: Homo sapiens; 72 hour treatment; table does not say which cell line (BJ, HaCaT). It counts as cell-based. How it is done: MTT assay is a standard test of toxicity based on photometric measurement of the ability of metabolically active cells to reduce MTT (3-(4,5-dimethylthiazol-2-yl)-2,5-diphenyltetrazolium bromide). Using the assay, the effects of 72 hour treatments with several concentrations of the compounds (sixfold dilution, maximal concentration=50 microM) on viability of skin fibroblasts BJ and keratinocytes HaCaT were evaluated. About 5,000 cells were seeded per well of a 96-well plate 24 hours before the treatment. DMSO vehiculum was used as a negative control. After 72 hour treatment, new medium with MTT (Sigma, M2128) was added to a final concentration of 0.5 mg/ml. After 3 hours, medium was removed and resulting formazan in the cells was dissolved in DMSO. The absorbance was measured at 570 nm (640 nm reference wavelength). The IC50 values were calculated from the dose-response curves. 6-furfurylaminopurine riboside was used as positive controls.

Take `CN(C)CCCN1c2ccccc2Sc2ccc(Cl)cc21` [chlorpromazine, reference compound]: the “viability of NHDF cells” value in series [1] (UVA+, 6.3 μmol/l) is on record as “below 80 % of control”; in series [1] (UVA−, 25 μmol/l), “below 80%”.

Take `Clc1nc(NCC2CCCO2)c2ncn(C3CCCO3)c2n1` (centres unmarked) [Compound 20, 2-chloro-6-(tetrahydrofuran-2-ylmethylamino)-9-(tetrahydrofuran-2-yl)purine]: the NHDF viability in series [1] (+UVA 5.0 J/cm^2, 3.9 μmol/l) stood at 100.1 % control; in series [1] (+UVA 5.0 J/cm^2, 7.8 μmol/l) it was 102.9 % control; in series [1] (+UVA 5.0 J/cm^2, 15.6 μmol/l) it was 100.4 % control; in series [1] (+UVA 5.0 J/cm^2, 31.3 μmol/l), 102.7 % control; in series [1] (+UVA 5.0 J/cm^2, 62.5 μmol/l), 105.1 % control; in series [1] (+UVA 5.0 J/cm^2, 125 μmol/l) it was 104.8 % control. In addition, the NHDF viability is given as 103.1 % control in series [1] (−UVA, 3.9 μmol/l); 102.9 % control in series [1] (−UVA, 7.8 μmol/l); 100.6 % control in series [1] (−UVA, 15.6 μmol/l); 105.6 % control in series [1] (−UVA, 31.3 μmol/l); 102 % control in series [1] (−UVA, 62.5 μmol/l); 104 % control in series [1] (−UVA, 125 μmol/l).

By IC50 is commonly meant the concentration needed to halve the response being measured. Lower therefore signals inhibition by little substance. As to `Clc1nc(NCc2ccco2)c2ncn(C3CCCO3)c2n1` (centres unmarked) [Compound 15, 2-chloro-6-furfurylamino-9-(tetrahydrofuran-2-yl)purine], the NHDF viability is given as 100.1 % control in series [1] (+UVA 5.0 J/cm^2, 3.9 μmol/l); 101.5 % control in series [1] (+UVA 5.0 J/cm^2, 7.8 μmol/l); 102.6 % control in series [1] (+UVA 5.0 J/cm^2, 15.6 μmol/l); 102.9 % control in series [1] (+UVA 5.0 J/cm^2, 31.3 μmol/l); 103.3 % control in series [1] (+UVA 5.0 J/cm^2, 62.5 μmol/l); 97.3 % control in series [1] (+UVA 5.0 J/cm^2, 125 μmol/l). In addition, the NHDF viability was found to be 100.3 % control in series [1] (−UVA, 3.9 μmol/l); 103.5 % control in series [1] (−UVA, 7.8 μmol/l); 104.3 % control in series [1] (−UVA, 15.6 μmol/l); 105.4 % control in series [1] (−UVA, 31.3 μmol/l); 106.3 % control in series [1] (−UVA, 62.5 μmol/l); 101.2 % control in series [1] (−UVA, 125 μmol/l). Further, the IC50 in series [2] is above 100 µM.

`OCc1ccc(CNc2ncnc3c2ncn3C2CCCO2)o1` (centres unmarked) [Compound 3, 6-(5-hydroxymethylfuran-2-ylmethylamino)-9-(tetrahydrofuran-2-yl)purine]: the NHDF viability in series [1] (+UVA 5.0 J/cm^2, 3.9 μmol/l) turned out to be 101.04 % control; in series [1] (+UVA 5.0 J/cm^2, 7.8 μmol/l) it was 106.46 % control; in series [1] (+UVA 5.0 J/cm^2, 15.6 μmol/l), 102.28 % control; in series [1] (+UVA 5.0 J/cm^2, 31.3 μmol/l) it was 107.4 % control; in series [1] (+UVA 5.0 J/cm^2, 62.5 μmol/l), 110.49 % control; in series [1] (+UVA 5.0 J/cm^2, 125 μmol/l), 111.8 % control. For the same compound, the NHDF viability in series [1] (−UVA, 3.9 μmol/l) was 103 % control; in series [1] (−UVA, 7.8 μmol/l), 104.9 % control; in series [1] (−UVA, 15.6 μmol/l), 104.2 % control; in series [1] (−UVA, 31.3 μmol/l), 107.7 % control; in series [1] (−UVA, 62.5 μmol/l), 106.6 % control; in series [1] (−UVA, 125 μmol/l), 110.4 % control.

For `c1csc(CNc2ncnc3c2ncn3C2CCCO2)c1` (centres unmarked) [Compound 9, 6-(thiophen-2-ylmethylamino)-9-(tetrahydrofuran-2-yl)purine], the NHDF viability in series [1] (+UVA 5.0 J/cm^2, 3.9 μmol/l) was 97.8 % control; in series [1] (+UVA 5.0 J/cm^2, 7.8 μmol/l), 102.3 % control; in series [1] (+UVA 5.0 J/cm^2, 15.6 μmol/l), 100.8 % control; in series [1] (+UVA 5.0 J/cm^2, 31.3 μmol/l) it was 105.9 % control; in series [1] (+UVA 5.0 J/cm^2, 62.5 μmol/l), 102.8 % control; in series [1] (+UVA 5.0 J/cm^2, 125 μmol/l), 106.3 % control. The NHDF viability was 100 % control in series [1] (−UVA, 3.9 μmol/l); 103 % control in series [1] (−UVA, 7.8 μmol/l); 100.5 % control in series [1] (−UVA, 15.6 μmol/l); 106.7 % control in series [1] (−UVA, 31.3 μmol/l); 107.9 % control in series [1] (−UVA, 62.5 μmol/l); 108.4 % control in series [1] (−UVA, 125 μmol/l). Also, the IC50 in series [2] is above 100 µM.

Take `c1nc(NCC2CCCO2)c2ncn(C3CCCO3)c2n1` (centres unmarked) [Compound 1, 6-(tetrahydrofuran-2-ylmethylamino)-9-(tetrahydrofuran-2-yl)purine]: the NHDF viability in series [1] (+UVA 5.0 J/cm^2, 3.9 μmol/l) is 105.1 % control; in series [1] (+UVA 5.0 J/cm^2, 7.8 μmol/l), 110.6 % control; in series [1] (+UVA 5.0 J/cm^2, 15.6 μmol/l), 106.8 % control; in series [1] (+UVA 5.0 J/cm^2, 31.3 μmol/l) it was 109.5 % control; in series [1] (+UVA 5.0 J/cm^2, 62.5 μmol/l), 103.3 % control; in series [1] (+UVA 5.0 J/cm^2, 125 μmol/l), 107.5 % control. In addition, the NHDF viability in series [1] (−UVA, 3.9 μmol/l) is listed as 96.6 % control; in series [1] (−UVA, 7.8 μmol/l), 106.5 % control; in series [1] (−UVA, 15.6 μmol/l) it was 99.6 % control; in series [1] (−UVA, 31.3 μmol/l), 102.4 % control; in series [1] (−UVA, 62.5 μmol/l), 102.3 % control; in series [1] (−UVA, 125 μmol/l), 109.7 % control. In series [2], this compound gave an IC50 above 100 µM.
